± gives the standard deviation of the averaged measurements.
Experiments:
Experiment in all cases: level (log10 ratio to DMSO vehicle control); higher = higher biomarker level / cell amount than vehicle control
[1] = compound: C=CC(=O)OCC(F)(F)C(F)(F)C(F)(F)C(F)(F)COC(=O)C=C [1H,1H,6H,6H-Perfluorohexane-1,6-diol diacrylate]; conditions: 6700 nM; in DMSO
Description: (§1)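 BioMAP Diversity Plus panel of 12 human primary cell co-culture systems (3C, 4H, LPS, SAg, BT, BF4T, BE3C, CASM3C, HDF3CGF, KF3CT, MyoF, Mphg). Compounds were added 1 h before stimulation and left for 24 h (MyoF 48 h; BT 72 h for soluble read-outs or 6 d for IgG). Biomarkers were read by ELISA, cytotoxicity by SRB, PBMC viability and proliferation by Alamar Blue. Each well value was divided by the mean of 8 DMSO control wells on the same plate and log10 transformed; duplicate blinded samples were tested at 4 concentrations.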

[2] = compound: C=CC(=O)OCCC(F)(F)C(F)(F)C(F)(F)C(F)(F)C(F)(F)C(F)(F)C(F)(F)C(F)(F)F [8:2 Fluorotelomer acrylate]; conditions: in DMSO
Description: as §1

[3] = compound: FC(F)(F)COC(OCC(F)(F)F)OCC(F)(F)F [tris(Trifluoroethoxy)methane]; conditions: in DMSO
Description: as §1

Perfluorooctanoic acid = compound: O=C(O)C(F)(F)C(F)(F)C(F)(F)C(F)(F)C(F)(F)C(F)(F)C(F)(F)F [Perfluorooctanoic acid]; conditions: in DMSO
Description: as §1

[4] = compound: O=S(=O)(OCC(F)(F)F)C(F)(F)C(F)(F)C(F)(F)C(F)(F)F [2,2,2-Trifluoroethyl perfluorobutanesulfonate]; conditions: in DMSO
Description: as §1

[5] = compound: OCC(F)(F)C(F)(F)C(F)(F)C(F)(F)C(F)(F)C(F)(F)C(F)(F)C(F)(F)C(F)(F)C(F)(F)C(F)(F)F [11:1 Fluorotelomer alcohol]; conditions: in DMSO
Description: as §1

[6] = compound: OCCCCC(F)(F)C(F)(F)C(F)(F)C(F)(F)F [4:4 Fluorotelomer alcohol]; conditions: in DMSO
Description: as §1

| Test System | level (log10) [1] | level (log10) ([2]; 6700 nM) | level (log10) ([2]; 20000 nM) | level (log10) ([2]; 60000 nM) | level (log10) ([3]; 6700 nM) | level (log10) ([3]; 20000 nM) | level (log10) ([3]; 60000 nM) | level (log10) (Perfluorooctanoic acid; 6700 nM) | level (log10) (Perfluorooctanoic acid; 20000 nM) | level (log10) (Perfluorooctanoic acid; 60000 nM) | level (log10) ([4]; 6700 nM) | level (log10) ([4]; 20000 nM) | level (log10) ([4]; 60000 nM) | level (log10) ([5]; 1100 nM) | level (log10) ([5]; 3300 nM) | level (log10) ([5]; 10000 nM) | level (log10) ([6]; 6700 nM) | level (log10) ([6]; 20000 nM) | level (log10) ([6]; 60000 nM) |
| --- | --- | --- | --- | --- | --- | --- | --- | --- | --- | --- | --- | --- | --- | --- | --- | --- | --- | --- | --- |
| CASM3C:CD106/VCAM-1 | -0.128 ± 0.02 | -0.033 ± 0.0042 | -0.039 ± 0.037 | 0.004 ± 0.025 | -0.0095 ± 0.005 | -0.02 ± 0.0014 | -0.025 ± 0.0057 | -0.033 ± 0.011 | -0.0165 ± 0.00071 | 0.019 ± 0.017 | -0.027 ± 0.014 | -0.038 ± 0.031 | -0.042 ± 0.083 | -0.004 ± 0.024 | 0 ± 0.023 | -0.0105 ± 0.019 | -0.015 ± 0.03 | -0.0205 ± 0.00071 | 0.006 ± 0.027 |
| CASM3C:CD141/Thrombomodulin | 0.0295 ± 0.016 | 0.0125 ± 0.011 | -0.005 ± 0.0071 | 0.009 ± 0.013 | -0.0075 ± 0.0092 | -0.006 ± 0.025 | -0.0125 ± 0.019 | 0.0125 ± 0.0092 | 0.007 ± 0.016 | -0.0115 ± 0.0064 | -0.0045 ± 0.0021 | 0.008 ± 0.037 | 0.0045 ± 0.0064 | -0.0155 ± 0.012 | -0.012 ± 0.025 | -0.0155 ± 0.005 | -0.0065 ± 0.012 | -0.0065 ± 0.0078 | 0.0145 ± 0.032 |
| CASM3C:CD142/Tissue Factor | -0.004 ± 0.059 | -0.036 ± 0.021 | -0.047 ± 0.05 | -0.0145 ± 0.032 | 0.0185 ± 0.047 | -0.011 ± 0.0085 | -0.0275 ± 0.016 | -0.0055 ± 0.039 | -0.008 ± 0.048 | -0.0345 ± 0.061 | 0.013 ± 0.011 | 0.0485 ± 0.0021 | 0.133 ± 0.052 | -0.013 ± 0.02 | -0.0225 ± 0.016 | -0.038 ± 0.02 | -0.0265 ± 0.015 | -0.0055 ± 0.0064 | 0.0285 ± 0.018 |
| CASM3C:CXCL8/IL-8 | -0.015 ± 0.0028 | -0.0185 ± 0.012 | -0.0165 ± 0.00071 | -0.0085 ± 0.00071 | -0.008 ± 0.0042 | -0.01 ± 0.016 | 0.0055 ± 0.03 | 0.014 ± 0.0085 | 0.009 ± 0.0042 | 0.052 ± 0.014 | 0.0335 ± 0.0064 | 0.031 ± 0.048 | 0.024 ± 0.042 | -0.0025 ± 0.0035 | -0.006 | -0.007 ± 0.064 | 0.0125 ± 0.0035 | 0.0095 ± 0.032 | 0.026 ± 0.045 |
| CASM3C:CXCL9/MIG | -0.154 ± 0.031 | 0.026 ± 0.0071 | -0.0055 ± 0.066 | 0.011 ± 0.065 | 0.0015 ± 0.012 | -0.0115 ± 0.0064 | -0.0145 ± 0.005 | 0.016 ± 0.0085 | -0.0065 ± 0.04 | 0.042 ± 0.076 | -0.0035 ± 0.026 | -0.014 ± 0.047 | -0.072 ± 0.09 | 0.0005 ± 0.0035 | -0.002 ± 0.0028 | 0.014 ± 0.021 | 0.0115 ± 0.0035 | 0.0065 ± 0.026 | 0.0345 ± 0.059 |
| CASM3C:HLA-DR | -0.008 ± 0.12 | -0.0145 ± 0.0078 | -0.0045 ± 0.0021 | 0.022 ± 0.013 | -0.0115 ± 0.0064 | -0.007 | -0.0135 ± 0.023 | 0.0045 ± 0.015 | -0.0045 ± 0.0021 | -0.0045 ± 0.043 | 0.0015 ± 0.0064 | -0.0015 ± 0.0064 | 0.0125 ± 0.005 | 0.0075 ± 0.016 | 0.0015 ± 0.00071 | 0.0095 ± 0.0035 | -0.0045 ± 0.019 | -0.015 ± 0.0042 | 0.019 ± 0.027 |
| CASM3C:IL-6 | -0.0735 ± 0.15 | -0.023 ± 0.0099 | -0.017 ± 0.027 | 0.0105 ± 0.05 | -0.019 ± 0.0028 | -0.0295 ± 0.011 | 0.005 ± 0.067 | -0.0135 ± 0.019 | -0.022 ± 0.027 | -0.008 ± 0.031 | -0.02 ± 0.033 | -0.0685 ± 0.0078 | -0.029 ± 0.024 | -0.0065 ± 0.00071 | -0.022 ± 0.025 | 0.005 ± 0.02 | 0.0005 ± 0.016 | -0.0215 ± 0.025 | 0.0155 ± 0.077 |
| CASM3C:LDLR | 0.001 ± 0.028 | -0.008 ± 0.011 | -0.0135 ± 0.011 | -0.002 ± 0.0099 | -0.0325 ± 0.022 | -0.0055 ± 0.015 | 0.008 ± 0.013 | -0.011 | 0.001 ± 0.013 | 0.004 ± 0.014 | -0.019 ± 0.062 | -0.0255 ± 0.013 | -0.0135 ± 0.0035 | -0.0055 ± 0.0021 | -0.0095 ± 0.0064 | 0 ± 0.035 | 0.016 ± 0.0042 | 0.0175 ± 0.022 | 0.03 ± 0.042 |
| CASM3C:M-CSF | -0.105 ± 0.016 | 0.003 ± 0.0057 | 0.0095 ± 0.032 | 0.0185 ± 0.04 | -0.0565 ± 0.015 | -0.03 ± 0.021 | 0.013 ± 0.037 | 0.0005 ± 0.012 | -0.004 ± 0.021 | 0.0145 ± 0.022 | -0.011 ± 0.0057 | 0.004 ± 0.0042 | 0.0365 ± 0.03 | -0.026 ± 0.044 | 0.006 ± 0.031 | 0.017 ± 0.0099 | 0.0085 ± 0.011 | -0.005 ± 0.024 | 0.021 ± 0.047 |
| CASM3C:PAI-I | 0.0005 ± 0.0021 | -0.0045 ± 0.0021 | -0.008 ± 0.0099 | 0.005 ± 0.017 | -0.003 ± 0.03 | 0.0015 ± 0.013 | 0.007 ± 0.0057 | 0.003 ± 0.0085 | -0.0005 ± 0.012 | 0.01 ± 0.018 | -0.0075 ± 0.0092 | 0.0015 ± 0.00071 | 0.0035 ± 0.0021 | -0.001 ± 0.0071 | -0.0055 ± 0.005 | -0.0005 ± 0.015 | 0.017 ± 0.016 | 0.013 ± 0.023 | 0.0085 ± 0.026 |
| CASM3C:Proliferation | -0.0005 ± 0.037 | 0.006 ± 0.021 | -0.05 ± 0.013 | -0.045 ± 0.037 | -0.033 ± 0.021 | -0.042 ± 0.0014 | 0.021 ± 0.027 | -0.023 ± 0.051 | -0.0165 ± 0.032 | 0.0105 ± 0.0064 | 0.0265 ± 0.0064 | -0.018 ± 0.027 | -0.026 ± 0.03 | 0.0145 ± 0.0078 | -0.0185 ± 0.005 | 0.0565 ± 0.0092 | -0.01 ± 0.0099 | -0.0345 ± 0.005 | -0.0075 ± 0.057 |
| CASM3C:SRB | 0 ± 0.0014 | -0.002 | 0.005 ± 0.0099 | 0.0085 ± 0.0064 | -0.0005 ± 0.011 | -0.0065 ± 0.013 | -0.0095 ± 0.013 | -0.005 ± 0.0042 | 0.0005 ± 0.00071 | 0.0095 ± 0.00071 | -0.006 | -0.005 ± 0.0028 | -0.0055 ± 0.0064 | 0.0075 ± 0.005 | 0.0095 ± 0.0064 | 0.008 ± 0.0071 | -0.0045 ± 0.00071 | 0.0015 ± 0.012 | -0.0025 ± 0.016 |
| CASM3C:Serum Amyloid A | -0.0575 ± 0.0078 | -0.0075 ± 0.013 | -0.0125 ± 0.022 | 0.018 ± 0.028 | -0.028 ± 0.027 | -0.026 ± 0.04 | 0.0045 ± 0.044 | -0.002 ± 0.013 | 0.006 ± 0.051 | 0.022 ± 0.038 | -0.0625 ± 0.077 | -0.0375 ± 0.052 | 0.006 ± 0.031 | -0.0025 ± 0.044 | -0.0045 ± 0.0078 | 0.0045 ± 0.016 | -0.0055 ± 0.025 | -0.01 ± 0.047 | 0.0295 ± 0.063 |
| HDF3CGF:CCL2/MCP-1 | -0.437 ± 0.0028 | -0.03 ± 0.017 | -0.042 ± 0.031 | -0.0805 ± 0.044 | 0.0035 ± 0.06 | 0.006 ± 0.051 | 0.0165 ± 0.035 | -0.0345 ± 0.044 | -0.0305 ± 0.04 | -0.0085 ± 0.057 | -0.0125 ± 0.021 | 0.0255 ± 0.021 | -0.0205 ± 0.033 | 0.0305 ± 0.033 | 0.0075 ± 0.0064 | 0.0095 ± 0.015 | 0.004 ± 0.0014 | 0.008 ± 0.0099 | 0.007 ± 0.016 |
| HDF3CGF:CD54/ICAM-1 | -0.175 ± 0.038 | 0.034 ± 0.04 | 0.044 ± 0.059 | 0.0395 ± 0.088 | -0.0195 ± 0.00071 | -0.013 ± 0.034 | -0.008 ± 0.0057 | 0.005 ± 0.0057 | 0.0055 ± 0.011 | -0.0035 ± 0.005 | -0.0105 ± 0.018 | -0.0025 ± 0.022 | -0.0285 ± 0.028 | 0.001 ± 0.0071 | -0.0075 ± 0.021 | -0.012 ± 0.0014 | -0.0135 ± 0.0064 | -0.003 ± 0.011 | -0.0125 ± 0.013 |
